{"source": "patent US20220062340A1", "about": "“IMMUNOTHERAPEUTIC METHODS AND COMPOSITIONS” (KING'S COLLEGE LONDON, priority 2018, published 2022)", "key": {"FOXP3 in Tregs": {"tested_on": "FOXP3 in Tregs", "experiment": "FOXP3 expression of ex vivo expanded Tregs", "format": "cell-based, human", "details": "Tregs expanded in the presence of the agonist", "protocol": "FACS-sorted Treg populations were plated at 1×10^6 or 0.5×10^6 in X-VIVO-15 medium and activated with anti-CD3/anti-CD28 coated beads (Dynabeads®, Invitrogen, Paisley, UK) at 1:1 bead: cell ratio. Rapamycin was added at day 0 of culture at a final concentration of 100 nM/L +/−ATRA 1 nM/L or RAR568 1 nM/L. Next, 1,000 IU/ml recombinant human IL-2 (rhlL-2) (Proleukin®, Novartis, Camberley, UK) was added at day 5 of culture. Cells were re-stimulated every 10-12 days and expanded for a total of 24-30 days. The phenotype and suppressive ability were assessed at the end of the culture period.\nFlow cytometry panels have been designed to assess the subtypes of regulatory T cells in patients with CD as well as their expression of gut homing molecules. Gating was performed based on natural populations when assessing for CD4^+CD25^highCD127low populations, as well as for CD45RA^+ Treg populations. Additionally, to minimize bias in the assessment of expression of gut homing markers and transcription factors, a fluorochrome minus one (FMO) panel was added for each marker of interest in each experiment that was performed."}, "RAR γ": {"biological_target": "T1, RAR γ (Homo sapiens, UniProt P13631)", "T1 sequence (P13631 1-454)": "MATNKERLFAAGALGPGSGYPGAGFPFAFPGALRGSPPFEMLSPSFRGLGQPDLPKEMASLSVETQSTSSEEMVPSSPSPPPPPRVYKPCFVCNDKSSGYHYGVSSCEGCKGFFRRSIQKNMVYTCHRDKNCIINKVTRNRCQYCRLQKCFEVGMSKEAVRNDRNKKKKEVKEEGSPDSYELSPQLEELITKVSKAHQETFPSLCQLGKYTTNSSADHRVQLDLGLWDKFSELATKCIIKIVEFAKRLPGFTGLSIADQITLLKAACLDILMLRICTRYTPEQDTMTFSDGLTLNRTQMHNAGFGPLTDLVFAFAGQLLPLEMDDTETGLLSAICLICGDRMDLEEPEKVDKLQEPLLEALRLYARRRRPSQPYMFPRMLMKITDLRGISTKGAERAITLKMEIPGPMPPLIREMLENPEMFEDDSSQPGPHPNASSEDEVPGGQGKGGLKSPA", "experiment": "Selectivity profile against human RARs (RARγ)", "format": "biochemical"}, "[1]": {"tested_on": "integrin α4β7 on Treg surface", "experiment": "Induction of integrin α4β7 on bulk Treg surface by RARα agonists (FIG. 6)", "format": "cell-based", "details": "bulk CD4+CD25+CD127− Tregs, 12 days stimulation, reducing agonist concentrations", "protocol": "Bulk Tregs (CD4+CD25+CD127−) Tregs (50,000 per well) were expanded in vitro with reducing concentrations of the agonists. Culture conditions: 2 aCD3/aCD28 beads/cell, 1000IU/mL IL-2, 0.1 nM Rapamycin+Agonist in X-vivo 15. Following 12 days stimulation, cells were stained for CD4, CD25, CD127, FOXP3, Integrin a4, Integrin b7, CD15s, CD161 and acquired on a BD symphony flow cytometer. Data was analysed in Flowjo and Prism."}}}
{"smiles": "CCOc1c(Cl)cc(C(=O)Nc2ccc(C(=O)O)c(C)c2)cc1OC(C)C", "note": "[RAR568]", "values": [{"measurement": "FOXP3 expression of expanded Tregs", "setting": "FOXP3 in Tregs; mean ± SD", "value": "96.99% ±3.51"}, {"measurement": "FOXP3 expression, range", "setting": "FOXP3 in Tregs; range", "value": "91.5-99.8"}, {"measurement": "selectivity over RAR γ", "setting": "RAR γ", "value": "> 13,000 fold"}, {"measurement": "induction of integrin α4β7 on Treg surface", "setting": "[1]", "value": "comparable effects"}]}
